# Measured values: US20090028816A1, “Treatment of depression, psychosis, and anxiety” (priority 2007, published 2009)
# Assay: Range-finding tolerability and efficacy studies in neurological models
# Format: in vivo
# Conditions: intraperitoneally at dose levels up to 15 mg/kg twice a day (bid) for multiple days
# Experimental: Ibudilast is obtained as a pure powder from Sigma (St. Louis, Mo.) or Haorui Pharma (Edison, N.J.) and prepared daily as a solution for intraperitoneal or oral administration. Previous range-finding tolerability and efficacy studies in neurological models indicate that ibudilast is well-tolerated intraperitoneally at dose levels up to 15 mg/kg twice a day (bid) for multiple days. An appropriate amount of ibudilast is dissolved in 100% […] (PEG) 400 (Sigma) and then diluted down to a final concentration of 35% PEG400 in sterile saline (0.9% for injection). Drug stability and concentration are validated by HPLC/MS/MS.
structure (smiles),measurement,value
"CC(C)C(=O)c1c(C(C)C)nn2ccccc12 [Ibudilast, 3-isobutyryl-2-isopropylpyrazolo[1,5-a]pyridine]","tolerability, intraperitoneal",well-tolerated
